PubChem BioAssay (NCI)
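Dose response: 5 concentrations. Exposure: 48 h. Format: 96-well plates. Endpoint: linear interpolation; highest concentration if not reached. At the TGI there is no net growth.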

Assays:
Assay in all cases: DTP human tumour cell line panel, 48 h
SF-295 CNS = test system: SF-295 CNS
KM12 colon = test system: KM12 colon
HOP-62 NSCLC = test system: HOP-62 NSCLC
SK-MEL-28 melanoma = test system: SK-MEL-28 melanoma
LOX IMVI melanoma = test system: LOX IMVI melanoma
M14 melanoma = test system: M14 melanoma
UACC-62 melanoma = test system: UACC-62 melanoma
DMS 114 small cell lung = test system: DMS 114 small cell lung
HL-60(TB) leukemia = test system: HL-60(TB) leukemia
UACC-257 melanoma = test system: UACC-257 melanoma
A549 NSCLC = test system: A549 NSCLC
HOP-18 NSCLC = test system: HOP-18 NSCLC
RXF 393 renal = test system: RXF 393 renal
EKVX NSCLC = test system: EKVX NSCLC
U251 CNS = test system: U251 CNS
HCT-15 colon = test system: HCT-15 colon
NCI-H226 lung = test system: NCI-H226 lung
LXFL 529 NSCLC = test system: LXFL 529 NSCLC
DMS 273 small cell lung = test system: DMS 273 small cell lung
MOLT-4 leukemia = test system: MOLT-4 leukemia
K-562 leukemia = test system: K-562 leukemia
HCC-2998 colon = test system: HCC-2998 colon
SF-268 CNS = test system: SF-268 CNS
ACHN renal = test system: ACHN renal
A498 renal = test system: A498 renal
DLD-1 colon = test system: DLD-1 colon
RXF-631 renal = test system: RXF-631 renal
OVCAR-3 ovarian = test system: OVCAR-3 ovarian
786-0 renal = test system: 786-0 renal
COLO 205 colon = test system: COLO 205 colon
SK-OV-3 ovarian = test system: SK-OV-3 ovarian
SNB-75 CNS = test system: SNB-75 CNS
NCI-H522 lung = test system: NCI-H522 lung
KM20L2 colon = test system: KM20L2 colon
NCI-H460 lung = test system: NCI-H460 lung
CAKI-1 renal = test system: CAKI-1 renal
NCI-H23 lung = test system: NCI-H23 lung
OVCAR-8 ovarian = test system: OVCAR-8 ovarian
OVCAR-4 ovarian = test system: OVCAR-4 ovarian
SNB-78 CNS = test system: SNB-78 CNS
CCRF-CEM leukemia = test system: CCRF-CEM leukemia
UO-31 renal = test system: UO-31 renal
SN12C renal = test system: SN12C renal
HCT-116 colon = test system: HCT-116 colon
SK-MEL-5 melanoma = test system: SK-MEL-5 melanoma
SW-620 colon = test system: SW-620 colon
OVCAR-5 ovarian = test system: OVCAR-5 ovarian
M19-MEL melanoma = test system: M19-MEL melanoma
SF-539 CNS = test system: SF-539 CNS
TK-10 renal = test system: TK-10 renal
SK-MEL-2 melanoma = test system: SK-MEL-2 melanoma
IGROV1 ovarian = test system: IGROV1 ovarian
MALME-3M melanoma = test system: MALME-3M melanoma
HOP-92 NSCLC = test system: HOP-92 NSCLC
SNB-19 CNS = test system: SNB-19 CNS
HT29 colon = test system: HT29 colon
SR leukemia = test system: SR leukemia
RPMI-8226 leukemia = test system: RPMI-8226 leukemia
XF 498 CNS = test system: XF 498 CNS

Measured: TGI

COC(=O)c1cc2c(s1)C(=O)c1ccccc1-2
not listed: HT29 colon | SR leukemia | RPMI-8226 leukemia | XF 498 CNS
> 100 µM: all other assays above

COC1(OC)CC2C(=O)N(Cc3ccccc3)C1C(S(=O)(=O)c1ccccc1)C2S(=O)(=O)c1ccccc1 (stereo not given)
46.2 µM: K-562 leukemia
58.2 µM: A498 renal
23.4 µM: OVCAR-8 ovarian
39.1 µM: SNB-78 CNS
13.7 µM: CCRF-CEM leukemia
30.7 µM: 786-0 renal
29.3 µM: SF-268 CNS | MALME-3M melanoma
16 µM: DMS 114 small cell lung
13.3 µM: DLD-1 colon
12.1 µM: LXFL 529 NSCLC
23.8 µM: M19-MEL melanoma
31.3 µM: UO-31 renal
21.1 µM: UACC-257 melanoma
28.4 µM: HT29 colon
34.1 µM: KM12 colon | OVCAR-5 ovarian
17.3 µM: HL-60(TB) leukemia
35.2 µM: NCI-H226 lung
82.7 µM: NCI-H460 lung
26.9 µM: CAKI-1 renal
22.9 µM: OVCAR-3 ovarian
13.6 µM: SW-620 colon
5.12 µM: NCI-H522 lung
25.4 µM: SN12C renal
32.3 µM: IGROV1 ovarian
45.5 µM: RPMI-8226 leukemia
46.6 µM: MOLT-4 leukemia
26.2 µM: UACC-62 melanoma
34 µM: SK-MEL-5 melanoma | HOP-92 NSCLC
31 µM: HOP-18 NSCLC
28.5 µM: M14 melanoma | TK-10 renal
16.9 µM: COLO 205 colon
21.8 µM: LOX IMVI melanoma
27.6 µM: SNB-75 CNS
28.6 µM: OVCAR-4 ovarian
31.1 µM: HCC-2998 colon
25.6 µM: RXF 393 renal
31.4 µM: KM20L2 colon
26.8 µM: SK-MEL-28 melanoma
75 µM: A549 NSCLC
14.8 µM: HCT-15 colon
32.6 µM: RXF-631 renal
> 100 µM: SF-295 CNS | HOP-62 NSCLC | SNB-19 CNS
22.4 µM: ACHN renal
27.7 µM: DMS 273 small cell lung
54.2 µM: SK-OV-3 ovarian
28.1 µM: NCI-H23 lung
27.3 µM: SF-539 CNS
29.9 µM: HCT-116 colon
27.2 µM: U251 CNS
85.4 µM: SR leukemia

O=c1[nH]c(=O)n(C2OC(CO)C(O)C2O)cc1NN=NCc1ccccc1 (stereo not given)
> 76.2 µM: RPMI-8226 leukemia
> 96.8 µM: HL-60(TB) leukemia
99.1 µM: DMS 114 small cell lung
> 67.8 µM: SW-620 colon
> 80.1 µM: HCT-116 colon
> 77.4 µM: DLD-1 colon
> 100 µM: all other assays above

[N-]=[N+]=NC12CC3C4CC5CC3C(C1)C(C5)C4C2
not listed: HL-60(TB) leukemia | RXF 393 renal | HCT-15 colon | KM20L2 colon
> 100 µM: all other assays above
